Source: US8957093B2, “N-biphenylmethylindole modulators of PPARG” (The Scripps Research Institute, priority 2011, dated 2015)

Legend:
GST-PPARG-LBD = GST-PPARG-LBD (Homo sapiens (Human), UniProt P37231); assay: Lanthascreen PPARG competitive binding assay (Invitrogen, TR-FRET); conditions: Lanthascreen competitive binding; NA = not active; inc = incomplete curve; read-out: IC50 (nM) Lantha
Outline: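 TR-FRET competitive binding of GST-PPARG-LBD with 5 nM Tb-GST-antibody and 5 nM Fluormone Pan-PPAR Green tracer, in TR-FRET buffer C. Compound serially diluted from 10 μM, 2 h dark incubation, in triplicate. Readout is 520/490 nm emission ratio (340 nm excitation), expressed as fold change over 2% DMSO control.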

[1] = system: PPARG (murine PPARg2 or full-length human PPARG, 3xPPRE-luciferase reporter); assay: Cell-based PPRE-luciferase transactivation assay in COS-1 cells; conditions: for EC50: PPRE-luciferase, COS-1 cells, NA = not active, read-out: EC50 (nM) PPRE; for PPRE transactivation (% in parentheses): rosiglitazone = 100%
Protocol: Cell-Based Transactivation Assay:
PPRE is a DNA that contains a binding site for PPARG; thus PPRE is a PPAR response element, used herein as a promoter reporter. The binding site is a DR1 response element with the sequence AGGTCA repeated 3 times in tandem and then fused to a construct for luciferase.
Thus, PPRE is the basis of the cell based transactivation assay described below. The plasmid DNA is co-transfected along with a plasmid for PPARG into COS-1 cells. After an overnight incubation, cells are treated with DMSO or compounds.
Confluent COS-1 cells were transfected with 4.5 μg murine PPARg2-pSV Sport or full-length human PPAR9-pSport6, 4.5 μg 3×PPRE-luciferase reporter and 27 μL X-treme Gene 9 transfection reagent in serum-free opti-mem media (Gibco), followed by overnight incubation at 37° C., 5% CO2. Transfected cells were plated in white Perkin Elmer 384-well plates and incubated 4 hours. […] After 18 hour incubation, treated cells were developed with Brite Lite Plus (Perkin Elmer) and read in 384-well Luminescence Perkin Elmer EnVision Multilabel plate reader. Graphs were plotted in triplicate in GraphPad Prism Software as fold change of treated cells over DMSO control cells.

GST-PPARG-LBD, sequence (P37231 238-503): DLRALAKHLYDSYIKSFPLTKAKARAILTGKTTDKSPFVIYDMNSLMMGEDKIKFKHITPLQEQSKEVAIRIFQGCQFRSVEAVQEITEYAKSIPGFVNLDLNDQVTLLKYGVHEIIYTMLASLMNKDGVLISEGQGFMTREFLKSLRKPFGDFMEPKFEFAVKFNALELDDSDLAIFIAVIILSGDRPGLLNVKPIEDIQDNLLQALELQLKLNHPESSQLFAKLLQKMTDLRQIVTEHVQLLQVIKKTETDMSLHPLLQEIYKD

SMILES | IC50 (GST-PPARG-LBD) [nM] | EC50 [1] [nM] | PPRE transactivation (% in parentheses) [1]
Cc1c(C)n(Cc2ccc(-c3ccccc3C(=O)O)cc2)c2ccc(C(=O)NCc3ccc(F)cc3)cc12 [Example 76, 4′-((5-(4-fluorobenzylcarbamoyl)-2,3-dimethyl-1H-indol-1-yl)methyl)biphenyl-2-carboxylic acid] | 5 | 23 | (15%)
Cc1c(C)n(Cc2ccc(-c3ccccc3C(=O)O)cc2)c2ccc(C(=O)NCc3ccc(C#N)cc3)cc12 [compound 8, 4′-((5-(4-Cyanobenzylcarbamoyl)-2,3-dimethyl-1H-indol-1-yl)methyl)biphenyl-2-carboxylic acid] | 34 | 9000 | (12%)
COc1ccc(CNC(=O)c2ccc3c(c2)c(C)c(C)n3Cc2ccc(-c3ccccc3C(=O)O)cc2)cc1OC [compound 24, 4′-((5-(3,4-Dimethoxybenzylcarbamoyl)-2,3-dimethyl-1H-indol-1-yl)methyl)biphenyl-2-carboxylic acid] | 125 | – | (0%)
Cc1c(C)n(Cc2ccc(-c3ccccc3C(=O)O)cc2)c2ccc(C(=O)NC(C)(C)c3ccccc3)cc12 [compound 25, 4′-((2,3-Dimethyl-5-((2-phenylpropan-2-yl)carbamoyl)-1H-indol-1-yl)methyl)-[1,1′-biphenyl]-2-carboxylic acid] | 0.5 | 2.5 | (15%)
Cc1c(C)n(Cc2ccc(-c3ccccc3C(=O)O)cc2)c2ccc(C(=O)NCc3ccc(S(N)(=O)=O)cc3)cc12 [compound 17, 4′-((2,3-Dimethyl-5-(4-sulfamoylbenzylcarbamoyl)-1H-indol-1-yl)methyl)biphenyl-2-carboxylic acid] | 300 | – | (0%)
Cc1c(C)n(Cc2ccc(-c3ccccc3C(=O)O)cc2)c2ccc(C(=O)NCc3ccc(-c4ccccc4)cc3)cc12 [Example 102, 4′-((5-(biphenyl-4-ylmethylcarbamoyl)-2,3-dimethyl-1H-indol-1-yl)methyl)biphenyl-2-carboxylic acid] | 247 | 1.2 | (29%)
Cc1c(C)n(Cc2ccc(-c3ccccc3C(=O)O)cc2)c2ccc(C(=O)NC(C)CCc3ccccc3)cc12 (stereo not shown) [Example 117, 4′-((2,3-dimethyl-5-(4-phenylbutan-2-ylcarbamoyl)-1H-indol-1-yl)methyl)biphenyl-2-carboxylic acid] | 3 | 3 | (17%)
Cc1c(C)n(Cc2ccc(-c3ccccc3C(=O)O)cc2)c2ccc(C(=O)NCC3COc4ccccc4C3)cc12 (stereo not shown) [Example 87, 4′-((5-(chroman-3-ylmethylcarbamoyl)-2,3-dimethyl-1H-indol-1-yl)methyl)biphenyl-2-carboxylic acid] | 17 | 200 | (18%)
Cc1c(C)n(Cc2ccc(-c3ccccc3C(=O)O)cc2)c2ccc(C(=O)NCc3ccc(N)cc3)cc12 [Example 95, 4′-((5-(4-aminobenzylcarbamoyl)-2,3-dimethyl-1H-indol-1-yl)methyl)biphenyl-2-carboxylic acid] | 4 | – | (0%)
Cc1c(C)n(Cc2ccc(-c3ccccc3C(=O)O)cc2)c2ccc(C(=O)N[C@@H]3COc4ccccc4C3)cc12 [Example 250, (S)-4′-((5-(chroman-3-ylcarbamoyl)-2,3-dimethyl-1H-indol-1-yl)methyl)-[1,1′-biphenyl]-2-carboxylic acid] | 88 | – | (0%)
Cc1c(C)n(Cc2ccc(-c3ccccc3C(=O)O)cc2)c2ccc(C(=O)N[C@@H](CO)c3ccccc3)cc12 [Example 79, (R)-4′-((5-(2-hydroxy-1-phenylethylcarbamoyl)-2,3-dimethyl-1H-indol-1-yl)methyl)biphenyl-2-carboxylic acid] | 37 | 297 | (25%)
Cc1c(C)n(Cc2ccc(-c3ccccc3C(=O)O)cc2)c2ccc(C(=O)NCc3cccc(C(F)(F)F)c3)cc12 [Example 100, 4′-((2,3-dimethyl-5-(3-(trifluoromethyl)benzylcarbamoyl)-1H-indol-1-yl)methyl)biphenyl-2-carboxylic acid] | 191 | 281 | (21%)
Cc1c(C)n(Cc2ccc(-c3ccccc3C(=O)O)cc2)c2ccc(C(=O)NC3COc4ccccc4C3)cc12 (stereo not shown) [Example 86, 4′-((5-(chroman-3-ylcarbamoyl)-2,3-dimethyl-1H-indol-1-yl)methyl)biphenyl-2-carboxylic acid] | 10 | – | (0%)
Cc1c(C)n(Cc2ccc(-c3ccccc3C(=O)O)cc2)c2ccc(C(=O)NCc3ccc(C(C)C)cc3)cc12 [compound 9, 4′-((5-(4-Isopropylbenzylcarbamoyl)-2,3-dimethyl-1H-indol-1-yl)methyl)biphenyl-2-carboxylic acid] | 23 | 7 | (18%)
Cc1cc2cc(C(=O)N[C@@H](C)c3ccc(Br)cc3)ccc2n1Cc1ccc(-c2ccccc2C(=O)O)cc1 [Example 135, (S)-4′-((5-((1-(4-Bromophenyl)ethyl)carbamoyl)-2-methyl-1H-indol-1-yl)methyl)-[1,1′-biphenyl]-2-carboxylic acid] | 80 | – | (0%)
Cc1c(C)n(Cc2ccc(-c3ccccc3C(=O)O)cc2)c2ccc(C(=O)NCc3cccc(S(C)(=O)=O)c3)cc12 [compound 4, 4′-((2,3-Dimethyl-5-(3-(methylsulfonyl)benzylcarbamoyl)-1H-indol-1-yl)methyl)biphenyl-2-carboxylic acid] | 230 | – | (0%)
Cc1c(C)n(Cc2ccc(-c3ccccc3C#N)cc2)c2ccc(C(=O)N[C@@H](C)c3ccc(Br)cc3)cc12 [Example 35, (S)—N-(1-(4-Bromophenyl)ethyl)-1-((2′-cyano-[1,1′-biphenyl]-4-yl)methyl)-2,3-dimethyl-1H-indole-5-carboxamide] | 40 | 380 | (9%)
COc1ccc(CNC(=O)c2ccc3c(c2)c(C)c(C)n3Cc2ccc(-c3ccccc3C(=O)O)cc2)c(OC)c1 [compound 20, 4′-((5-(2,4-Dimethoxybenzylcarbamoyl)-2,3-dimethyl-1H-indol-1-yl)methyl)biphenyl-2-carboxylic acid] | 16 | – | (0%)
COCCNC(=O)c1ccc2c(c1)c(C)c(C)n2Cc1ccc(-c2ccccc2C(=O)O)cc1 [Example 92, 4′-((5-(2-methoxyethylcarbamoyl)-2,3-dimethyl-1H-indol-1-yl)methyl)biphenyl-2-carboxylic acid] | 17 | > 1000 | (9%)
Cc1c(C)n(Cc2ccc(-c3ccccc3C(=O)O)cc2)c2ccc(C(=O)NCc3ccccc3Br)cc12 [Example 118, 4′-((5-((2-Bromobenzyl)carbamoyl)-2,3-dimethyl-1H-indol-1-yl)methyl)-[1,1′-biphenyl]-2-carboxylic acid] | 17 | 86 | (8%)
CCC(NC(=O)c1ccc2c(c1)c(C)c(C)n2Cc1ccc(-c2ccccc2-c2nnn[nH]2)cc1)c1ccccc1 (stereo not shown) [Example 36, 1-((2′-(1H-Tetrazol-5-yl)-[1,1′-biphenyl]-4-yl)methyl)-2,3-dimethyl-N-(1-phenylpropyl)-1H-indole-5-carboxamide] | 6 | 2 | (23%)
Cc1c(C)n(Cc2ccc(-c3ccccc3C(=O)O)cc2)c2ccc(C(=O)NCc3ccc4c(c3)OCO4)cc12 [Example 78, 4′-((5-(benzo[d][1,3]dioxol-5-ylmethylcarbamoyl)-2,3-dimethyl-1H-indol-1-yl)methyl)biphenyl-2-carboxylic acid] | 33 | 1000 | (30%)
Cc1c(C)n(Cc2ccc(-c3ccccc3C(=O)O)cc2)c2ccc(C(=O)NC[C@H](C)c3ccccc3)cc12 [Example 74, (R)-4′-((2,3-dimethyl-5-(2-phenylpropylcarbamoyl)-1H-indol-1-yl)methyl)biphenyl-2-carboxylic acid] | 76 | 300 | (26%)
Cc1c(C)n(Cc2ccc(-c3ccccc3-c3nnn[nH]3)cc2)c2ccc(C(=O)N[C@@H](C)c3ccc(Br)cc3)cc12 [Example 37, (S)-1-((2′-(1H-tetrazol-5-yl)-[1,1′-biphenyl]-4-yl)methyl)-N-(1-(4-bromophenyl)ethyl)-2,3-dimethyl-1H-indole-5-carboxamide] | > 1000 | 1000 | (19%)
